Patent publication US11219625B2, “Inhibitors of N-linked glycosylation and methods using same” (YALE UNIVERSITY, priority 2015, dated 2022)

Experiments:
OST = assay: Free and peptide glycans in streptolysin-O permeabilized CHO cells; type: cell-based; conditions: NGI-1 5 μM
Experimental: Fluorophore assisted carbohydrate electrophoresis (FACE) was performed as previously described (Gao, et al., Glycobiology 2002, 12, 353-360; Gao, et al., J Biol Chem 2005, 280, 17901-17909). Control (Ac-Gln-Tyr-Thr-CONH2) and acceptor (Ac-Asn-Tyr-Thr-CONH2) peptides were used for permeabilized cell experiments. Metabolic labeling of Hela cells, transfection of prosaposin (pSAP) and steroid hormone binding globulin (SHBG) vectors, and knockdown of SIT3A and STT3B to monitor N-linked glycosylation knockdown were performed as described (Shrimal, et al., J Cell Biol 2013, 201, 81-95). Western blot analysis was performed as previously described (Bennett, et al., Transl Oncol 2013, 6, 382-391). […]
The OST is an ER resident multi-subunit complex that cleaves LLOs and transfers the oligosaccharide to a protein encoded N-linked glycosylation consensus sequence (NXT/S). […] Both enzymatic products of the OST, free glycans and protein glycans, were therefore determined with and without NGI-1 treatment using optimized conditions in streptolysin-O permeabilized CHO cells (FIG. 2C). Addition of a control peptide without the N-linked glycosylation consensus sequence (QYT) led to readily detectable levels of free glycans (left panel), while addition of an acceptor peptide containing the consensus sequence (NYT) followed by PNGase treatment led to detection of cleaved peptide glycans (right panel). […]

cyclin D1 = assay: Cyclin D1 expression (qRT-PCR, western blot), PC9; type: cell-based, human
Experimental: FIGS. 5A-5G illustrate NGI-1 induces G1 arrest and senescence in EGFR addicted tumor cells. FIG. 5A illustrates cell cycle distribution of PC9 cells after 24 h NGI-1 treatment for 24 h determined by flow cytometry. […] FIG. 5B illustrates cell cycle distribution of A549 cells after 24 h NGI-1 treatment for 24 h determined by flow cytometry. FIG. 5C illustrates western blot time course of cyclin D1 expression in PC9 and A549 cells after NGI-1 treatment. FIG. 5D illustrates quantitative real-time PCR analysis of PC9 and A549 cells. A time course of cyclin D1 expression levels relative to GAPDH is represented. […] FIG. 5F illustrates senescence of PC9 cells explored by: cell autofluorescence, measured by flow cytometry using a detector for PE/YFP; lipofuscin accumulation, detected by confocal laser scanning microscopy using an excitation laser of 405 nm with acquired signals from spectrums of yellow 575-620 nm; and morphology changes, enlarged vs. flattened. […] Significance was calculated using a T test (*p<0.05. **p<0.01). FIG. 5G illustrates senescence of A549 cells explored by: cell autofluorescence, measured by flow cytometry using a detector for PE/YFP; lipofuscin accumulation, detected by confocal laser scanning microscopy using an excitation laser of 405 nm with acquired signals from spectrums of yellow 575-620 nm; and morphology changes, enlarged vs. flattened. […]

## Cc1cnc(NC(=O)c2cc(S(=O)(=O)N(C)C)ccc2N2CCCC2)s1 [NGI-1, 5-(N,N-Dimethylsulfamoyl)-N-(5-methylthiazol-2-yl)-2-(pyrrolidin-1-yl)benzamide]
OST
  production of free glycans and cleaved peptide glycans: substantially reduced the production of both free and cleaved glycans
Cyclin D1; PC9
  cyclin D1 reduced, protein level: 40%
Cyclin D1; PC9, p<0.01
  cyclin D1 reduced, mRNA level: 40%±15%
